Reference: patent US6559164B1, “Substituted pyrroles suitable for continuous infusion” (Hoffmann-La Roche Inc., priority 1999, dated 2003)
Where a name gives a salt, the structure may show the parent alone.

Tests used:
[1] = Stability in solution for intravenous administration (release of 3-(1-methyl-3-indolyl)-4-(1-methyl-6-nitro-3-indolyl)-1H-pyrrole-2,5-dione); format: physicochemical; details: 72 hours at room temperature in a mixture of acetonitrile and saline or dextrose water; parent pyrrole-2,5-dione detected
Description: “Stability” is an overall assessment of the ability of a compound of formula I to withstand degradation in a typical solution used for the administration of drugs intravenously. Specifically, it refers to the ability of any given compound of formula I to release 3-(1-methyl-3-indolyl)-4-(1-methyl-6-nitro-3-indolyl)-1H-pyrrole-2,5-dione, over a 72 hour period in a mixture of acetonitrile and saline or dextrose water. The
“stability” of a compound of formula I is “very good” if the less than 1% 3-(1-Methyl-3-indolyl)-4-(1-methyl-6-nitro-3-indolyl)-1H-pyrrole-2,5-dione is detected, “good” if less than 2.5% 3-(1-Methyl-3-indolyl)-4-(1-methyl-6-nitro-3-indolyl)-1H-pyrrole-2,5-dione is detected, and “fair” if less than 5% 3-(1-Methyl-3-indolyl)-4-(1-methyl-6-nitro-3-indolyl)-1H-pyrrole-2,5-dione is detected after 72 hours incubation at room temperature.

[2] = Plasma conversion (degradation in plasma to the active metabolite); format: in vitro ADME; details: human or rodent plasma at 37° C., percent degradation
Description: “Plasma conversion” with respect to compounds of formula I means the degradation (enzymatic and/or non-enzymatic) of such compound in human or rodent plasma at 37° C. from 30 minutes to 6 hours to give 3-(1-methyl-3-indolyl)-4-(1-methyl-6-nitro-3-indolyl)-1H-pyrrole-2,5-dione, a pharmaceutically active metabolite of compounds of formula I, as well as pharmaceutically active metabolites thereof. This conversion is typically given as the percent degradation over a specified time frame.

| Compound | Stability [1] | Plasma Conversion ([2]; @ 30 min) | also measured |
| --- | --- | --- | --- |
| Cn1cc(C2=C(c3cn(C)c4cc([N+](=O)[O-])ccc34)C(=O)N(CO)C2=O)c2ccccc21 | – | – | melting point: 209 to 211 °C |
| Cn1cc(C2=C(c3cn(C)c4cc([N+](=O)[O-])ccc34)C(=O)N(COC(=O)c3cccnc3)C2=O)c2ccccc21 [Example 3a, nicotinic acid 3-(1-methyl-1H-indol-3-yl)-4-(1-methyl-6-nitro-1H-indol-3-yl)-2,5-dioxo-2,5-dihydro-pyrrol-1-ylmethyl ester] | Good | 70% @ 30 min | – |
| Cn1cc(C2=C(c3cn(C)c4cc([N+](=O)[O-])ccc34)C(=O)N(COC(=O)Cc3ccncc3)C2=O)c2ccccc21 [Example 3c, pyridin-4-yl acetic acid 3-(1-methyl-1H-indol-3-yl)-4-(1-methyl-6-nitro-1H-indol-3-yl)-2,5-dioxo-2,5-dihydro-pyrrol-1-ylmethyl ester] | Good | 60% @ 30 min | – |
| Cn1cc(C2=C(c3cn(C)c4cc([N+](=O)[O-])ccc34)C(=O)N(COC(=O)Cc3cccnc3)C2=O)c2ccccc21 [Example 3d, pyridin-3-yl acetic acid 3-(1-methyl-1H-indol-3-yl)-4-(1-methyl-6-nitro-1H-indol-3-yl)-2,5-dioxo-2,5-dihydro-pyrrol-1-ylmethyl ester] | Good | 70% @ 30 min | – |
| Cn1cc(C2=C(c3cn(C)c4cc([N+](=O)[O-])ccc34)C(=O)N(COC(=O)CCC(=O)O)C2=O)c2ccccc21 [Example 3f, succinic acid mono-[3-(1-methyl-1H-indol-3-yl)-4-(1-methyl-6-nitro-1H-indol-3-yl)-2,5-dioxo-2,5-dihydro-pyrrol-1-ylmethyl] ester] | Good | 20% @ 30 min | – |
| CCCCCCC=CCCCCCCCC(=O)OCN1C(=O)C(c2cn(C)c3ccccc23)=C(c2cn(C)c3cc([N+](=O)[O-])ccc23)C1=O [Example 3g, hexadec-9-enoic 3-(1-methyl-1H-indol-3-yl)-4-(1-methyl-6-nitro-1H-indol-3-yl)-2,5-dioxo-2,5-dihydro-pyrrol-1-ylmethyl ester] | Good | – | – |
| Cn1cc(C2=C(c3cn(C)c4cc([N+](=O)[O-])ccc34)C(=O)N(COC(=O)COCCOCCOCCOCC(=O)O)C2=O)c2ccccc21 [Example 3h, [2-[2-(2-carboxymethoxy-ethoxy)-ethoxy]-ethoxy] acetic acid-3-(1-methyl-1H-indol-3-yl)-4-(1-methyl-6-nitro-1H-indol-3-yl)-2,5-dioxo-2,5-dihydro-pyrrol-1-ylmethyl ester] | Fair | – | – |
| Cn1cc(C2=C(c3cn(C)c4cc([N+](=O)[O-])ccc34)C(=O)N(COC(=O)C3CCNCC3)C2=O)c2ccccc21 [Example 8a, piperidine-4-carboxylic acid 3-(1-methyl-1H-indol-3-yl)-4-(1-methyl-6-nitro-1H-indol-3-yl)-2,5-dioxo-2,5-dihydro-pyrrol-1-ylmethyl ester trifluoroacetate] | Good | 30% @ 30 min | – |
| Cn1cc(C2=C(c3cn(C)c4cc([N+](=O)[O-])ccc34)C(=O)N(COC(=O)c3ccc[n+](C)c3)C2=O)c2ccccc21 [Example 12, 1-Methyl-3-[3-(1-methyl-1H-indol-3-yl)-4-(1-methyl-6-nitro-1H-indol-3-yl)-2,5-dioxo-2,5-dihydro-pyrrol-1-ylmethoxycarbonyl]-pyridinium; Trifluoroacetate] | Fair | 60% @ 30 min | – |
| Cn1cc(C2=C(c3cn(C)c4cc([N+](=O)[O-])ccc34)C(=O)N(COC(=O)c3ccc(OP(=O)(O)O)cc3)C2=O)c2ccccc21 [Example 14, 4-Phosphonooxy-benzoic Acid 3-(1-Methyl-1H-indol-3-yl)-4-(1-methyl-6-nitro-1H-indol-3-yl)-2,5-dioxo-2,5-dihydro-pyrrol-1-ylmethyl Ester Monosodium Salt] | Good | – | Plasma Conversion ([2]; @ 4 hrs): 5% @ 4 hrs |
| Cn1cc(C2=C(c3cn(C)c4cc([N+](=O)[O-])ccc34)C(=O)N(COC(=O)NCCOP(=O)(O)O)C2=O)c2ccccc21 [Example 20, (2-Phosphonooxy-ethyl)-carbamic Acid 3-(1-Methyl-1H-indol-3-yl)-4-(1-methyl-6-nitro-1H-indol-3-yl)-2,5-dioxo-2,5-dihydro-pyrrol-1-ylmethyl Ester] | Good | – | – |
| CCN(CC)CCNC(=O)N1C(=O)C(c2cn(C)c3ccccc23)=C(c2cn(C)c3cc([N+](=O)[O-])ccc23)C1=O [Example 21, 3-(1-Methyl-1H-indol-3-yl)-4-(1-methyl-6-nitro-1H-indol-3-yl)-2,5-dioxo-2,5-dihydro-pyrrole-1-carboxylic Acid (2-Diethylamino-ethyl)-amide] | Fair | – | Plasma Conversion ([2]; @ 1 hr): 100% @ 1 hr |
| Cn1cc(C2=C(c3cn(C)c4cc([N+](=O)[O-])ccc34)C(=O)N(C(=O)NCCCCOP(=O)([O-])[O-])C2=O)c2ccccc21.[Na+].[Na+] [Example 24, Phosphoric Acid Mono-(4-{[3-(1-methyl-1H-indol-3-yl)-4-(1-methyl-6-nitro-1H-indol-3-yl)-2,5-dioxo-2,5-dihydro-pyrrole-1-carbonyl]-amino}-butyl) Ester Sodium Salt] | Good | – | Plasma Conversion ([2]; @ 6 hrs): 10% @ 6 hrs |
| [[3-(1-Methyl-1H-indol-3-yl)-4-(1-methyl-6-nitro-1H-indol-3-yl)-2,5-dioxo-2,5-dihydro-pyrrol-1-yl]methoxycarbonyl]-4-phenyl-O-methylpolyethylene Glycol 500 [Example 15] | Good | – | Plasma Conversion ([2]; @ 2 hrs): 100% @ 2 hrs |
